Literature values as cited in patent publication US11109615B2, “Vitamin A composition” (NESTEC S.A., priority 2015, dated 2021).

Conditions: ambient conditions

- maximum solubility: 0.08 g/100 g oil
SMILES: CC1=C(/C=C/C(C)=C/C=C/C(C)=C/C=C/C=C(C)/C=C/C=C(C)/C=C/C2=C(C)CCCC2(C)C)C(C)(C)CCC1 [β-carotene, All-trans-β-carotene]
